From patent US4684650A, “Antihypertensive fluorophenylindanyl imidazolidinoneethylpiperazines” (priority 1984, dated 1987)
Read-outs that look alike come from different tables or passages of the source.

Assays:
[1] = test system: methylphenidate induced stereotypies; assay: Methylphenidate Antagonism; format: in vivo, mice; conditions: for ED50: Mus musculus, ip, read-out: MePh antg. ED50, i.p., mice, 2 hours before methylphenidate 60 mg/kg s.c.; for MePh antg. ED50: i.p., mice, 2 hours before methylphenidate 60 mg/kg s.c.
Procedure: The experiments were made as described by Pedersen and Christensen (1972) Acta Pharmacol. et Toxicol. 31, 488-496.--Briefly, test compounds or saline were injected i.p. 2 hours before methylphenidate, 60 mg/kg s.c. 3 pairs of mice were used for each dose level. After methylphenidate injection the mice were placed in observation cages for one hour. The cages were placed on corrugated paper, the corrugation facing upwards.

[2] = test system: 1-5-HTP-induced head shakes; assay: 1-5-HTP-induced head shakes; format: in vivo; conditions: rats, 1-5-HTP 75 mg/kg i.p. after citalopram; for ED50: Rattus norvegicus, sc, read-out: 1-5-HTP-antg. ED50; for 1-5-HTP-antg. ED50: s.c.
Procedure: The rats were pretreated subcutaneously with test compound or saline simultaneously with or 90 min before injection of citalopram (10 mg/kg s.c.).
Each group consisted of 4-12 rats.

5-HT2 receptors = molecular target: T1, 5-HT2 receptors (Rattus norvegicus, UniProt P14842); assay: 3H-spiroperidol binding to 5-HT2 receptors; conditions: rat whole cortex, 0.5 nM 3H-spiroperidol, 0.3 μM sulpiride; read-out: 3H-SPI binding 5-HT2 IC50
T1 construct: Rat whole cortex was homogenized by an Ultra Turrax homogenizer; from tissue; host or cells: rat whole cerebral cortex, crude washed membranes
T1 sequence (P14842 whole entry): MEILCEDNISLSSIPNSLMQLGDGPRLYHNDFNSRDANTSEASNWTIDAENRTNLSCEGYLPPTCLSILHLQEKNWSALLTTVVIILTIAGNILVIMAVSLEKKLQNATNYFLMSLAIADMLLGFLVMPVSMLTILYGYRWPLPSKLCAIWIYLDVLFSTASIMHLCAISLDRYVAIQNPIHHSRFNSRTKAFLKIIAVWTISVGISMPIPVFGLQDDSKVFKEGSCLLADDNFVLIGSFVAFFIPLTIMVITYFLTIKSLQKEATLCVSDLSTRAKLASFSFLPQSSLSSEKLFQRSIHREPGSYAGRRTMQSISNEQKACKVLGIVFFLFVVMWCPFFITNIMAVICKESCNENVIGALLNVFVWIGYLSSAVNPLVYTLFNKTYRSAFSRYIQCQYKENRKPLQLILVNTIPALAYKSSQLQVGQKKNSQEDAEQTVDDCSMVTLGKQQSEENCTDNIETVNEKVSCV
Procedure: ^3 H-spiroperidol binding to 5-HT2 receptors.
Rat whole cortex was homogenized by an Ultra Turrax homogenizer in 100 vol. of 50 mM Tris buffer pH 7.7. The homogenate was centrifuged at 20,000 g for 10 minutes at 4° C. The pellet was rehomogenized in another volume of buffer and centrifuged as mentioned above. The final pellet was rehomogenized in 50 mM Tris buffer pH 7.7 containing 120 mM NaCl, 5 mM KCl, 2 mM CaCl2 and 1 mM MgCl2 (ion mix) in a volume corresponding to 12.5 mg original tissue per ml.
Test drugs were dissolved in water; ^3 H-spiroperidol (NEN, 28-30 Ci/mmol) was diluted in 3 μM sulpiride, and 800 μl membrane suspension were added. Final concentration of ligand and sulpiride were 0.5 nM and 0.3 μM, respectively. The samples were incubated at 37° C. for 10 min. The samples were then filtered under vacuum through Whatman GF/B glass-fiber filters. The tubes were then rinsed with 5 ml incubation buffer, which was poured on the filters. The filters were finally washed twice with 5 ml buffer and placed in counting vials. After addition of 5 ml scintillation fluid (Lumagel) radioactivity was estimated by liquid scintillation counting. Non-specific binding was obtained by adding Mianserin (1 μM) to separate samples. Each drug was tested at least twice at 5 concentrations in triplicate. IC50-values were determined from log concentration-response curves.--The presence of sulpiride excluded binding to dopamine D-2 receptors.

[3] = test system: spontaneous hypertensive rats (SHR); assay: Antihypertensive effect in spontaneous hypertensive rats (SHR); format: in vivo; conditions: for change in vivo at 5 mg/kg / ED10: Rattus norvegicus, ip; for change in vivo at 5 mg/kg: 1 h; for Antihypertensive eff. SHR, max eff. in % of 5 mg/kg ip, DAP: diastolic pressure (DAP); for Antihypertensive eff. SHR, max eff. in % of 5 mg/kg ip, DAP / Antihypertensive eff. SHR, max eff. in % of 5 mg/kg ip, SAP: max change within one hour; for Antihypertensive eff. SHR, max eff. in % of 5 mg/kg ip, SAP: systolic pressure (SAP)
Procedure: Antihypertensive effect in spontaneous hypertensive rats (SHR)
The femoral artery of male SHR is cannulated in anaestesia for blood pressure recordings. After a stabilization period of 11/2 h after discontinuation of the anaesthesia initial blood pressure curves are recorded and the systolic (SAP)/diastolic (DAP) pressure determined (-20, -10, 0, min. p.i.) Test substance is injected i.p. and the pressure curve recorded for one hour. The change in SAP/DAP is calculated in percent at mean initial values at different times (10, 20, 30, 40, 50 and 60 minutes after injection). At least two SHR are used per dose level. The maximum change is used for estimation of the drug effect.

5-HT pressor responses = assay: Antagonism to 5-HT pressor responses in pithed rats; format: in vivo; conditions: for change in vivo at 0.02 mg/kg / ED50: Rattus norvegicus, iv; for change in vivo at 0.02 mg/kg: read-out: Effects on pressor response of 5-HT, % eff. of 0.02 mg/kg, pithed rats, 0.02 mg/kg, jugular vein; for ED50: read-out: Effects on pressor response of 5-HT, ED50, pithed rats, jugular vein
Procedure: (§1) The rat is anaesthetized with ether, tracheotomized, artificial respired and pithed. The knitting-needle is introduced through the right orbita into the cranial cavity and passed through foramen magnum into the spinal canal as far as possible. The spinal cord is destroyed by turning the needle. After vagotomi both carotides are ligated and a catheter placed in the right one for pressure recording. The rat is adrenalectomized. […] The initial and post medication mean pressor effect is calculated, and the mean pressor effect is calculated as % of the initial value. Two to five preparations are employed for each dose level. The ED50 is determined.

[4] = test system: phenylephrine pressor responses; assay: Antagonism to phenylephrine pressor responses in pithed rats; format: in vivo; conditions: for ED50: Rattus norvegicus, iv, read-out: Effects on pressor response of Phenylephrine, ED50; for Phenylephr. antg./5-HT antg. (ratio): pithed rats, ratio of phenylephrine ED50 to 5-HT ED50
Procedure: as §1

[5] = read-out: Antihypertensive eff. SHR, max eff. in % of 5 mg/kg ip, DAP, 5 mg/kg ip, diastolic pressure (DAP), max change within one hour
[6] = read-out: Antihypertensive eff. SHR, max eff. in % of 5 mg/kg ip, SAP, 5 mg/kg ip, systolic pressure (SAP), max change within one hour
[7] = read-out: Antihypertensive eff. SHR, ED10 DAP
[8] = read-out: Antihypertensive eff. SHR, ED10 SAP

SMILES: OCCN1CCN([C@@H]2C[C@@H](c3ccc(F)cc3)c3ccc(C(F)(F)F)cc32)CC1 (racemic) [Tefludazine, (±)trans-4-[3-(4-fluorophenyl)-6-(trifluoromethyl)-indan-1-yl]-1-piperazineethanol, reference compound]
- ED50 [1]: 0.06 µmol/kg
- activity against methylphenidate induced stereotypies ([1]; in words): high activity
- ED50 [2]: 0.039 µmol/kg
- IC50 (5-HT2 receptors): 8.6 nM
- change in vivo at 5 mg/kg [3, 5]: -24%
- change in vivo at 5 mg/kg [3, 6]: -18%
- peripheral or central action ([3]; in words): marked central effects
- change in vivo at 0.02 mg/kg (5-HT pressor responses): -78%
- ED50 (5-HT pressor responses): 0.015 µmol/kg
- ED50 [4]: 1.7 µmol/kg
- Phenylephr. antg./5-HT antg. (ratio) [4]: 115

SMILES: O=C1NCCN1CCN1CCN([C@@H]2C[C@@H](c3ccc(F)cc3)c3ccccc32)CC1 (relative stereo) [compound 1]
- ED50 [1]: > 98 µmol/kg
- ED50 [2]: 1.3 µmol/kg
- IC50 (5-HT2 receptors): 25 nM
- change in vivo at 5 mg/kg [3, 5]: -43%
- change in vivo at 5 mg/kg [3, 6]: -33%
- ED10 [3, 7]: 4.2 µmol/kg
- ED10 [3, 8]: 5.9 µmol/kg
- change in vivo at 0.02 mg/kg (5-HT pressor responses): -68%
- ED50 (5-HT pressor responses): 0.024 µmol/kg
- ED50 [4]: 3.13 µmol/kg

SMILES: O=C1NCCN1CCN1CCN([C@@H]2C[C@@H](c3ccc(F)cc3)c3ccc(F)cc32)CC1 (relative stereo) [compound 2]
- ED50 [1]: 79 µmol/kg
- ED50 [2]: 0.13 µmol/kg
- IC50 (5-HT2 receptors): 6.7 nM
- change in vivo at 5 mg/kg [3, 5]: -19%
- change in vivo at 5 mg/kg [3, 6]: -14%
- ED10 [3, 7]: 4.1 µmol/kg
- ED10 [3, 8]: 9.2 µmol/kg
- change in vivo at 0.02 mg/kg (5-HT pressor responses): -89%
- ED50 (5-HT pressor responses): 0.017 µmol/kg
- ED50 [4]: 2.55 µmol/kg
- Phenylephr. antg./5-HT antg. (ratio) [4]: 150

SMILES: CN1CCN(CCN2CCN([C@@H]3C[C@@H](c4ccc(F)cc4)c4ccc(F)cc43)CC2)C1=O (relative stereo) [compound 3]
- ED50 [1]: > 78 µmol/kg
- ED50 [2]: 0.08 µmol/kg
- IC50 (5-HT2 receptors): 3.4 nM
- change in vivo at 5 mg/kg [3, 5]: -13%
- change in vivo at 5 mg/kg [3, 6]: -11%
- change in vivo at 0.02 mg/kg (5-HT pressor responses): -87%
- ED50 (5-HT pressor responses): 0.01 µmol/kg
- ED50 [4]: 14 µmol/kg
- Phenylephr. antg./5-HT antg. (ratio) [4]: 1400

SMILES: O=C1CCCN1CCN1CCN([C@@H]2C[C@@H](c3ccc(F)cc3)c3ccc(F)cc32)CC1 (relative stereo) [compound 18]
- ED50 [1]: 18 µmol/kg
- ED50 [2]: 0.76 µmol/kg
- IC50 (5-HT2 receptors): 12 nM
- Antihypertensive eff. SHR, max eff. in % of 5 mg/kg ip, SAP/DAP (inactive) [3]: I
- change in vivo at 0.02 mg/kg (5-HT pressor responses): -67%

SMILES: CN1CCC(CCN2CCN([C@H]3C[C@H](c4ccc(F)cc4)c4ccccc43)CC2)C1=O (relative stereo) [compound 23]
- ED50 [1]: > 61 µmol/kg
- ED50 [2]: 1.4 µmol/kg
- IC50 (5-HT2 receptors): 16 nM
- Antihypertensive eff. SHR, max eff. in % of 5 mg/kg ip, DAP [3]: -43%
- Antihypertensive eff. SHR, max eff. in % of 5 mg/kg ip, SAP [3]: -31%
- Effects on pressor response of 5-HT, % eff. of 0.02 mg/kg (5-HT pressor responses; pithed rats, jugular vein): -38%

SMILES: O=C1NCCCN1CCN1CCN([C@@H]2C[C@@H](c3ccc(F)cc3)c3ccc(F)cc32)CC1 (relative stereo) [compound 25]
- ED50 [1]: > 59 µmol/kg
- ED50 [2]: 1.2 µmol/kg
- IC50 (5-HT2 receptors): 12 nM
- Antihypertensive eff. SHR, max eff. in % of 5 mg/kg ip, SAP/DAP (inactive) [3]: I
- change in vivo at 0.02 mg/kg (5-HT pressor responses): -60%

SMILES: Fc1ccc([C@@H]2C[C@@H](N3CCN(CCN4CCNC4=S)CC3)c3ccccc32)cc1 (relative stereo) [compound 27, Trans-1-[3-(4-fluorophenyl)-indan-1-yl]-4-[2-(imidazolidin-2-thion-1-yl)ethyl]piperazine]
- ED50 [1]: > 61 µmol/kg
- ED50 [2]: 0.48 µmol/kg
- IC50 (5-HT2 receptors): 4.7 nM
- change in vivo at 5 mg/kg [3, 5]: -29%
- change in vivo at 5 mg/kg [3, 6]: -18%
- change in vivo at 0.02 mg/kg (5-HT pressor responses): -71%

SMILES: Fc1ccc([C@@H]2C[C@@H](N3CCN(CCN4CCNC4=S)CC3)c3cc(F)ccc32)cc1 (single isomer, unassigned) [+24]
- ED50 [1]: 17 µmol/kg
- ED50 [2]: 0.03 µmol/kg
- IC50 (5-HT2 receptors): 2.5 nM
- change in vivo at 5 mg/kg [3, 5]: -40%
- change in vivo at 5 mg/kg [3, 6]: -32%
- change in vivo at 0.02 mg/kg (5-HT pressor responses): -88%

SMILES: O=C1NCCN1CCN1CCN([C@@H]2C[C@@H](c3ccc(F)cc3)c3ccccc32)CC1 (single isomer, unassigned) [-1]
- MePh antg. ED50 [1]: > 97 µmol/kg
- 1-5-HTP-antg. ED50 [2]: 8.9 µmol/kg
- IC50 (5-HT2 receptors): 130 nM
- Antihypertensive eff. SHR, max eff. in % of 5 mg/kg ip, DAP [3]: -11%
- Antihypertensive eff. SHR, max eff. in % of 5 mg/kg ip, SAP [3]: -3%
- Effects on pressor response of 5-HT, % eff. of 0.02 mg/kg (5-HT pressor responses; pithed rats, jugular vein): -11%

SMILES: O=C1NCCN1CCN1CCN([C@@H]2C[C@@H](c3ccc(F)cc3)c3ccc(F)cc32)CC1 (single isomer, unassigned) [-2]
- MePh antg. ED50 [1]: > 61 µmol/kg
- 1-5-HTP-antg. ED50 [2]: 20 µmol/kg
- IC50 (5-HT2 receptors): 320 nM
- Antihypertensive eff. SHR, max eff. in % of 5 mg/kg ip, DAP [3]: +4%
- Antihypertensive eff. SHR, max eff. in % of 5 mg/kg ip, SAP [3]: +6%
- change in vivo at 0.02 mg/kg (5-HT pressor responses): 2%
- Effects on pressor response of 5-HT, ED50 (5-HT pressor responses; pithed rats, jugular vein): 1.43 µmol/kg

SMILES: CN1CCN(CCN2CCN([C@@H]3C[C@@H](c4ccc(F)cc4)c4ccc(F)cc43)CC2)C1=O (single isomer, unassigned) [-3]
- MePh antg. ED50 [1]: > 91 µmol/kg
- 1-5-HTP-antg. ED50 [2]: 45 µmol/kg
- IC50 (5-HT2 receptors): 410 nM
- Antihypertensive eff. SHR, max eff. in % of 5 mg/kg ip, SAP/DAP (inactive) [3]: I
- Effects on pressor response of 5-HT, % eff. of 0.02 mg/kg (5-HT pressor responses; pithed rats, jugular vein): -6%
